# Experimental data taken from patent publication US20060069132A1, “Azolecarboxamide herbicides” (priority 2004, published 2006).
# Assays:
# corn = assay: Test C pre-/postemergence herbicide test; assay type: in vivo, Zea mays; details: preemergence
# Method in brief: (§1)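 Preemergence: seeds planted and treated with compound in non-phytotoxic solvent with surfactant; postemergence: plants at 2 to 18 cm (1- to 4-leaf stage) sprayed likewise. Kept in greenhouse 12 to 14 days, then visually rated against controls, 0 (no effect) to 100 (complete control).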
# yellow nutsedge = assay: Test C pre-/postemergence herbicide test; assay type: in vivo, Cyperus esculentus; details: preemergence
# Method in brief: as §1
# morningglory = assay: Test C pre-/postemergence herbicide test; assay type: in vivo, Ipomoea coccinea; set-up: key to Plant response rating, Morningglory: 0 = no effect, 100 = complete control; details: preemergence
# Method in brief: as §1
# soybean = assay: Test C pre-/postemergence herbicide test; assay type: in vivo, Glycine max; details: preemergence
# Method in brief: as §1
# ducksalad = assay: Test C flooded paddy test; assay type: in vivo, Heteranthera limosa; details: for Plant response rating, Ducksalad: 500 g ai/ha, visual rating after 12 to 14 days
# johnsongrass = assay: Test C pre-/postemergence herbicide test; assay type: in vivo, Sorghum halepense; details: preemergence
# Method in brief: as §1
# common ragweed = assay: Test C pre-/postemergence herbicide test; assay type: in vivo, Ambrosia elatior; set-up: key to Plant response rating, Ragweed: 0 = no effect, 100 = complete control; details: preemergence
# Method in brief: as §1
# [1] = test system: smallflower umbrella sedge; assay: Test C flooded paddy test; assay type: in vivo, Cyperus difformis; details: for Plant response rating, Sedge, Umbrella: 500 g ai/ha, visual rating after 12 to 14 days
# lambsquarters = assay: Test C pre-/postemergence herbicide test; assay type: in vivo, Chenopodium album; details: preemergence
# Method in brief: as §1
# Surinam grass = assay: Test C pre-/postemergence herbicide test; assay type: in vivo, Urochloa decumbens; details: preemergence
# Method in brief: as §1
# barnyardgrass = assay: Test C flooded paddy test; assay type: in vivo, Echinochloa crus-galli; details: for Plant response rating, Barnyardgrass: 500 g ai/ha, visual rating after 12 to 14 days
# Method in brief: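 Ratings (0 = no effect, 100 = complete control) come from visual comparison with untreated plants after 12 to 14 days in the greenhouse. Treatment was postemergence at the 1- to 4-leaf stage (2–18 cm), or at the 2-leaf stage for the flooded paddy barnyardgrass.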
# giant foxtail = assay: Test C pre-/postemergence herbicide test; assay type: in vivo, Setaria faberi; details: preemergence
# Method in brief: as §1
# eastern black nightshade = assay: Test C pre-/postemergence herbicide test; assay type: in vivo, Solanum ptycanthum; details: preemergence
# Method in brief: as §1
# [2] = 125 g ai/ha, scale 0 (no effect) to 100 (complete control), visual, 12 to 14 days
# [3] = 125 g ai/ha, scale 0 to 100 (0 no effect, 100 complete control)
# [4] = 250 g ai/ha, scale of 0 to 100, 0 is no effect, 100 is complete control
# [5] = scale 0 to 100 (0 no effect, 100 complete control)
# [6] = 62 g ai/ha, scale 0 to 100 (0 no effect, 100 complete control)
# [7] = 500 g ai/ha, scale 0 to 100 (0 no effect, 100 complete control), visual, 12 to 14 days
smiles,measurement,setting,value
CCNC(=O)c1ccc(F)c(NC(=O)c2cc(C3(C)CC3)nn2CC)c1 [Compound 300],"Plant response rating, Corn","corn; 62 g ai/ha, scale 0 to 100",30
same,"Plant response rating, Corn",corn; [2],30
same,"Plant response rating, Corn","corn; 250 g ai/ha, scale 0-100",35
same,"Plant response rating, Nutsedge, Yellow","yellow nutsedge; 31 g ai/ha, scale 0 to 100, last section of Table C",0
same,"Plant response rating, Nutsedge, Yellow","yellow nutsedge; 62 g ai/ha, scale 0 to 100",0
same,"Plant response rating, Nutsedge, Yellow",yellow nutsedge; [2],20
same,"Plant response rating, Nutsedge, Yellow","yellow nutsedge; 250 g ai/ha, scale 0-100",60
same,"Plant response rating, Morningglory","morningglory; 62 g ai/ha, scale 0 to 100",5
same,"Plant response rating, Morningglory",morningglory; [2],40
same,"Plant response rating, Morningglory","morningglory; 250 g ai/ha, scale 0-100",40
same,"Plant response rating, Soybean","soybean; 62 g ai/ha, scale 0 to 100",0
same,"Plant response rating, Soybean","soybean; 250 g ai/ha, scale 0-100",70
same,Ducksalad plant response rating,"ducksalad; 62 g ai/ha, scale 0 to 100",75
same,Ducksalad plant response rating,ducksalad; [3],80
same,Ducksalad plant response rating,ducksalad; [4],85
same,"Plant response rating, Ducksalad",ducksalad; [5],90
same,"Plant response rating, Johnsongrass","johnsongrass; 62 g ai/ha, scale 0 to 100",60
same,"Plant response rating, Johnsongrass",johnsongrass; [2],85
same,"Plant response rating, Johnsongrass","johnsongrass; 250 g ai/ha, scale 0-100",95
same,"Plant response rating, Ragweed","common ragweed; 62 g ai/ha, scale 0 to 100",5
same,"Plant response rating, Ragweed","common ragweed; 250 g ai/ha, scale 0-100",10
same,"Sedge, Umbrella plant response rating","[1]; 62 g ai/ha, scale 0 to 100",80
same,"Sedge, Umbrella plant response rating",[1]; [3],80
same,"Sedge, Umbrella plant response rating",[1]; [4],85
same,"Plant response rating, Sedge, Umbrella",[1]; [5],90
same,"Plant response rating, Lambsquarters","lambsquarters; 62 g ai/ha, scale 0 to 100",100
same,"Plant response rating, Lambsquarters",lambsquarters; [2],100
same,"Plant response rating, Lambsquarters","lambsquarters; 250 g ai/ha, scale 0-100",100
same,"Plant response rating, Surinam Grass","Surinam grass; 62 g ai/ha, scale 0 to 100",30
same,"Plant response rating, Surinam Grass","Surinam grass; 250 g ai/ha, scale 0-100",100
same,Barnyardgrass plant response rating,barnyardgrass; [6],35
same,Barnyardgrass plant response rating,barnyardgrass; [3],50
same,Barnyardgrass plant response rating,barnyardgrass; [4],90
same,"Plant response rating, Barnyardgrass",barnyardgrass; [5],95
same,"Plant response rating, Foxtail, Giant","giant foxtail; 62 g ai/ha, scale 0 to 100",30
same,"Plant response rating, Foxtail, Giant",giant foxtail; [2],65
same,"Plant response rating, Foxtail, Giant","giant foxtail; 250 g ai/ha, scale 0-100",100
same,"Plant response rating, Nightshade","eastern black nightshade; 62 g ai/ha, scale 0 to 100",100
same,"Plant response rating, Nightshade",eastern black nightshade; [2],100
same,"Plant response rating, Nightshade","eastern black nightshade; 250 g ai/ha, scale 0-100",100
CCNC(=O)c1ccc(F)c(NC(=O)C2CC(C(C)(C)C)=NN2CC)c1 (racemic) [Compound 269],"Plant response rating, Corn",corn; [2],20
same,"Plant response rating, Corn","corn; 250 g ai/ha, scale 0-100",40
same,"Plant response rating, Corn",corn; [7],55
same,"Plant response rating, Nutsedge, Yellow","yellow nutsedge; 62 g ai/ha, scale 0 to 100",5
same,"Plant response rating, Nutsedge, Yellow",yellow nutsedge; [2],10
same,"Plant response rating, Nutsedge, Yellow","yellow nutsedge; 250 g ai/ha, scale 0-100",40
same,"Plant response rating, Nutsedge, Yellow",yellow nutsedge; [7],60
same,"Plant response rating, Morningglory","morningglory; 62 g ai/ha, scale 0 to 100",0
same,"Plant response rating, Morningglory",morningglory; [2],5
same,"Plant response rating, Morningglory","morningglory; 250 g ai/ha, scale 0-100",10
same,"Plant response rating, Morningglory",morningglory; [7],40
same,"Plant response rating, Soybean","soybean; 62 g ai/ha, scale 0 to 100",0
same,"Plant response rating, Soybean","soybean; 250 g ai/ha, scale 0-100",50
same,"Plant response rating, Soybean",soybean; [7],60
same,Ducksalad plant response rating,"ducksalad; 62 g ai/ha, scale 0 to 100",55
same,Ducksalad plant response rating,ducksalad; [3],80
same,Ducksalad plant response rating,ducksalad; [4],80
same,"Plant response rating, Ducksalad",ducksalad; [5],85
same,"Plant response rating, Johnsongrass","johnsongrass; 62 g ai/ha, scale 0 to 100",40
same,"Plant response rating, Johnsongrass",johnsongrass; [2],60
same,"Plant response rating, Johnsongrass","johnsongrass; 250 g ai/ha, scale 0-100",100
same,"Plant response rating, Johnsongrass",johnsongrass; [7],100
same,"Plant response rating, Ragweed","common ragweed; 62 g ai/ha, scale 0 to 100",5
same,"Plant response rating, Ragweed","common ragweed; 250 g ai/ha, scale 0-100",90
same,"Plant response rating, Ragweed",common ragweed; [7],90
same,"Sedge, Umbrella plant response rating","[1]; 62 g ai/ha, scale 0 to 100",45
same,"Sedge, Umbrella plant response rating",[1]; [3],80
same,"Sedge, Umbrella plant response rating",[1]; [4],80
same,"Plant response rating, Sedge, Umbrella",[1]; [5],85
same,"Plant response rating, Lambsquarters","lambsquarters; 62 g ai/ha, scale 0 to 100",95
same,"Plant response rating, Lambsquarters",lambsquarters; [2],100
same,"Plant response rating, Lambsquarters","lambsquarters; 250 g ai/ha, scale 0-100",100
same,"Plant response rating, Lambsquarters",lambsquarters; [7],100
same,"Plant response rating, Surinam Grass","Surinam grass; 62 g ai/ha, scale 0 to 100",5
same,"Plant response rating, Surinam Grass","Surinam grass; 250 g ai/ha, scale 0-100",85
same,"Plant response rating, Surinam Grass",Surinam grass; [7],95
same,Barnyardgrass plant response rating,barnyardgrass; [6],45
same,Barnyardgrass plant response rating,barnyardgrass; [3],65
same,Barnyardgrass plant response rating,barnyardgrass; [4],75
same,"Plant response rating, Barnyardgrass",barnyardgrass; [5],90
same,"Plant response rating, Foxtail, Giant","giant foxtail; 62 g ai/ha, scale 0 to 100",50
same,"Plant response rating, Foxtail, Giant",giant foxtail; [2],90
same,"Plant response rating, Foxtail, Giant","giant foxtail; 250 g ai/ha, scale 0-100",100
same,"Plant response rating, Foxtail, Giant",giant foxtail; [7],100
same,"Plant response rating, Nightshade","eastern black nightshade; 62 g ai/ha, scale 0 to 100",90
same,"Plant response rating, Nightshade",eastern black nightshade; [2],100
same,"Plant response rating, Nightshade","eastern black nightshade; 250 g ai/ha, scale 0-100",100
same,"Plant response rating, Nightshade",eastern black nightshade; [7],100
C=CCNC(=O)c1cccc(NC(=O)c2nn(C(C)C)nc2CC)c1 [Compound 382],"Plant response rating, Corn","corn; 62 g ai/ha, scale 0 to 100",0
same,"Plant response rating (0 = no effect, 100 = complete control), Corn",corn; 125 g ai/ha,50
same,"Plant response rating, Corn","corn; 250 g ai/ha, scale 0-100",55
same,"Plant response rating, Corn",corn; [7],60
same,"Plant response rating, Nutsedge, Yellow","yellow nutsedge; 62 g ai/ha, scale 0 to 100",0
same,"Plant response rating (0 = no effect, 100 = complete control), Nutsedge, Yellow",yellow nutsedge; 125 g ai/ha,0
same,"Plant response rating, Nutsedge, Yellow","yellow nutsedge; 250 g ai/ha, scale 0-100",25
same,"Plant response rating, Nutsedge, Yellow",yellow nutsedge; [7],60
same,"Plant response rating, Morningglory","morningglory; 62 g ai/ha, scale 0 to 100",0
same,"Plant response rating (0 = no effect, 100 = complete control), Morningglory",morningglory; 125 g ai/ha,25
same,"Plant response rating, Morningglory","morningglory; 250 g ai/ha, scale 0-100",65
same,"Plant response rating, Morningglory",morningglory; [7],100
same,"Plant response rating, Soybean","soybean; 62 g ai/ha, scale 0 to 100",100
same,"Plant response rating (0 = no effect, 100 = complete control), Soybean",soybean; 125 g ai/ha,100
same,"Plant response rating, Soybean","soybean; 250 g ai/ha, scale 0-100",100
same,"Plant response rating, Soybean",soybean; [7],100
same,Ducksalad plant response rating,"ducksalad; 62 g ai/ha, scale 0 to 100",25
same,Ducksalad plant response rating,ducksalad; [3],65
same,Ducksalad plant response rating,ducksalad; [4],80
same,"Plant response rating, Ducksalad",ducksalad; [5],85
same,"Plant response rating, Johnsongrass","johnsongrass; 62 g ai/ha, scale 0 to 100",70
same,"Plant response rating (0 = no effect, 100 = complete control), Johnsongrass",johnsongrass; 125 g ai/ha,95
same,"Plant response rating, Johnsongrass","johnsongrass; 250 g ai/ha, scale 0-100",100
same,"Plant response rating, Johnsongrass",johnsongrass; [7],100
same,"Plant response rating, Ragweed","common ragweed; 62 g ai/ha, scale 0 to 100",20
same,"Plant response rating (0 = no effect, 100 = complete control), Ragweed",common ragweed; 125 g ai/ha,65
same,"Plant response rating, Ragweed","common ragweed; 250 g ai/ha, scale 0-100",90
same,"Plant response rating, Ragweed",common ragweed; [7],100
same,"Sedge, Umbrella plant response rating","[1]; 62 g ai/ha, scale 0 to 100",75
same,"Sedge, Umbrella plant response rating",[1]; [3],80
same,"Sedge, Umbrella plant response rating",[1]; [4],85
same,"Plant response rating, Sedge, Umbrella",[1]; [5],90
same,"Plant response rating, Lambsquarters","lambsquarters; 62 g ai/ha, scale 0 to 100",90
same,"Plant response rating (0 = no effect, 100 = complete control), Lambsquarters",lambsquarters; 125 g ai/ha,100
same,"Plant response rating, Lambsquarters","lambsquarters; 250 g ai/ha, scale 0-100",100
same,"Plant response rating, Lambsquarters",lambsquarters; [7],100
same,"Plant response rating (0 = no effect, 100 = complete control), Surinam Grass",Surinam grass; 125 g ai/ha,95
same,"Plant response rating, Surinam Grass","Surinam grass; 250 g ai/ha, scale 0-100",100
same,"Plant response rating, Surinam Grass",Surinam grass; [7],100
same,Barnyardgrass plant response rating,barnyardgrass; [6],10
same,Barnyardgrass plant response rating,barnyardgrass; [3],25
same,Barnyardgrass plant response rating,barnyardgrass; [4],65
same,"Plant response rating, Barnyardgrass",barnyardgrass; [5],75
same,"Plant response rating, Foxtail, Giant","giant foxtail; 62 g ai/ha, scale 0 to 100",60
same,"Plant response rating (0 = no effect, 100 = complete control), Foxtail, Giant",giant foxtail; 125 g ai/ha,90
same,"Plant response rating, Foxtail, Giant","giant foxtail; 250 g ai/ha, scale 0-100",100
same,"Plant response rating, Foxtail, Giant",giant foxtail; [7],100
same,"Plant response rating, Nightshade","eastern black nightshade; 62 g ai/ha, scale 0 to 100",95
same,"Plant response rating, Nightshade","eastern black nightshade; 250 g ai/ha, scale 0-100",95
same,"Plant response rating, Nightshade",eastern black nightshade; [7],100
